Reference: patent publication US20020137929A1, “1 - (3-heterocyclylphenyl) isothiourea, -isourea, -guanidine and -amidine herbicidal agents” (Intellectual Property Department, BASF Aktiengesellschaft, priority 1998, published 2002)

Experiments:
[1] = tested on: AMBEL (Ragweed, Common); assay: Postemergence herbicidal evaluation; type: in vivo, Ambrosia artemisifolia; conditions: postemergence
Procedure, shortened: (§1)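 Visual 0-9 injury score (stand, vigor, malformation, size, chlorosis, appearance vs untreated) taken four to five weeks post-spray, averaged across repeat tests. Test plants about two weeks old; foliar spray of acetone/water (1:1) with 0.5% surfactant delivering ~0.0156-0.500 kg active/ha.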

[2] = tested on: CASOB (Sicklepod); assay: Postemergence herbicidal evaluation; type: in vivo, Cassia obtusifolia; conditions: postemergence
Procedure, shortened: as §1

[3] = tested on: GALAP (Galium); assay: Postemergence herbicidal evaluation; type: in vivo, Galium aparine; conditions: postemergence
Procedure, shortened: as §1

[4] = tested on: GLXMAW (Soybean, Williams); assay: Postemergence herbicidal evaluation; type: in vivo, Glycine max, (L.) Merr. cv Williams; conditions: postemergence
Procedure, shortened: as §1

[5] = tested on: TRZAWR (Wheat, Winter, cv Riband); assay: Postemergence herbicidal evaluation; type: in vivo, Triticum aestivum; conditions: postemergence
Procedure, shortened: as §1

[6] = tested on: GALAP (Galium); assay: Preemergence herbicidal evaluation; type: in vivo, Galium aparine; conditions: rated 4-5 weeks after treatment, rating scale 0-9
Procedure, shortened: (§2)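 Herbicidal effect scored visually, 0-9, at 4 to 5 weeks against a control; compound applied preemergence by aqueous acetone spray to seeded soil at about 0.0156 to 0.500 kg/ha.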

[7] = tested on: SETVI (Foxtail, Green); assay: Preemergence herbicidal evaluation; type: in vivo, Setaria viridis; conditions: rated 4-5 weeks after treatment, rating scale 0-9
Procedure, shortened: as §2

[8] = tested on: ORYSAT (Rice, Tebonnet); assay: Preemergence herbicidal evaluation; type: in vivo, Oryza sativa, (L.) Tebonnet; conditions: rated 4-5 weeks after treatment, rating scale 0-9
Procedure, shortened: as §2

[9] = tested on: ECHORC (Watergrass (Calif.)); assay: Preemergence weed control under flooded paddy conditions; type: in vivo, Echinochloa oryzoides; conditions: rated 3-4 weeks after treatment
Procedure, shortened: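 Herbicidal effect is scored visually on a 0-9 scale against an untreated control, three to four weeks after compounds are pipetted into the flood water (1.5 to 3 cm deep) over seeds planted in silt loam at 0.5 cm depth. Rates: about 0.0313 to 0.500 kg/ha.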

[10] = tested on: CYPSE (Flatsedge); assay: as above; type: in vivo, Cyperus serotinus; conditions: rated 3-4 weeks after treatment
Procedure, shortened: (§3)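 Ratings on a 0-9 visual scale cover stand, vigor, malformation, size, chlorosis and overall appearance relative to a control, taken three to four weeks post-treatment. Application was into flood water over freshly sown silt loam at roughly 0.0313 to 0.500 kg/ha.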

[11] = tested on: MOOVA (Monochoria); assay: as above; type: in vivo, Monochoria vaginalis; conditions: rated 3-4 weeks after treatment
Procedure, shortened: as §3

[12] = tested on: SAGPY (Arrowhead (Pygmaea)); assay: as above; type: in vivo, Sagittaria pygmaea; conditions: rated 3-4 weeks after treatment
Procedure, shortened: as §3

Structure (SMILES): COc1cccc(CN2C(=O)CSC2=Nc2cc(-n3c(=O)cc(C(F)(F)F)n(C)c3=O)c(F)cc2Cl)c1 [Compound 137, 3-{4-Chloro-2-fluoro-5-{[3-(m-methoxybenzyl)-4-oxo-2-thiazolidinylidene]amino}phenyl}-1-methyl-6-(trifluoromethyl)-2,4(1H,3H)-pyrimidinedione]
- herbicidal rating AMBEL ([1]; rate 0.0156 kg/ha): 9.0
- herbicidal rating AMBEL ([1]; rate 0.0313 kg/ha): 9.0
- herbicidal rating AMBEL ([1]; rate 0.0625 kg/ha): 9.0
- herbicidal rating CASOB ([2]; rate 0.0156 kg/ha): 1.0
- herbicidal rating CASOB ([2]; rate 0.0313 kg/ha): 1.0
- herbicidal rating CASOB ([2]; rate 0.0625 kg/ha): 4.0
- herbicidal rating GALAP ([3]; rate 0.0156 kg/ha): 1.0
- herbicidal rating GALAP ([3]; rate 0.0313 kg/ha): 1.0
- herbicidal rating GALAP ([3]; rate 0.0625 kg/ha): 3.0
- herbicidal rating GLXMAW ([4]; rate 0.0156 kg/ha): 6.0
- herbicidal rating GLXMAW ([4]; rate 0.0313 kg/ha): 5.5
- herbicidal rating GLXMAW ([4]; rate 0.0625 kg/ha): 5.5
- herbicidal rating TRZAWR ([5]; rate 0.0156 kg/ha): 3.5
- herbicidal rating TRZAWR ([5]; rate 0.0313 kg/ha): 3.0
- herbicidal rating TRZAWR ([5]; rate 0.0625 kg/ha): 4.5
- Preemergence herbicidal rating GALAP ([6]; rate 0.0625 kg/ha): 0.0
- Preemergence herbicidal rating GALAP ([6]; rate 0.1250 kg/ha): 0.0
- Preemergence herbicidal rating GALAP ([6]; rate 0.2500 kg/ha): 0.0
- Preemergence herbicidal rating SETVI ([7]; rate 0.0625 kg/ha): 0.0
- Preemergence herbicidal rating SETVI ([7]; rate 0.1250 kg/ha): 0.0
- Preemergence herbicidal rating SETVI ([7]; rate 0.2500 kg/ha): 2.0
- Preemergence herbicidal rating ORYSAT ([8]; rate 0.0625 kg/ha): 0.0
- Preemergence herbicidal rating ORYSAT ([8]; rate 0.1250 kg/ha): 0.0
- Preemergence herbicidal rating ORYSAT ([8]; rate 0.2500 kg/ha): 0.0
- herbicidal effect rating, ECHORC ([9]; 0.0313 kg/ha): 3.0
- herbicidal effect rating, ECHORC ([9]; 0.0625 kg/ha): 3.0
- herbicidal effect rating, ECHORC ([9]; 0.1250 kg/ha): 3.0
- herbicidal effect rating, ECHORC ([9]; 0.2500 kg/ha): 5.0
- herbicidal effect rating, CYPSE ([10]; 0.0313 kg/ha): 0.0
- herbicidal effect rating, CYPSE ([10]; 0.0625 kg/ha): 0.0
- herbicidal effect rating, CYPSE ([10]; 0.1250 kg/ha): 0.0
- herbicidal effect rating, CYPSE ([10]; 0.2500 kg/ha): 0.0
- herbicidal effect rating, MOOVA ([11]; 0.0313 kg/ha): 4.0
- herbicidal effect rating, MOOVA ([11]; 0.0625 kg/ha): 5.0
- herbicidal effect rating, MOOVA ([11]; 0.1250 kg/ha): 5.0
- herbicidal effect rating, MOOVA ([11]; 0.2500 kg/ha): 8.0
- herbicidal effect rating, SAGPY ([12]; 0.0313 kg/ha): 0.0
- herbicidal effect rating, SAGPY ([12]; 0.0625 kg/ha): 0.0
- herbicidal effect rating, SAGPY ([12]; 0.1250 kg/ha): 0.0
- herbicidal effect rating, SAGPY ([12]; 0.2500 kg/ha): 3.0

Structure (SMILES): COc1ccc(CN2C(=O)CSC2=Nc2cc(-n3c(=O)cc(C(F)(F)F)n(C)c3=O)c(F)cc2Cl)c(OC)c1 [Compound 139, 3-{4-Chloro-5-{[3-(2,4-dimethoxybenzyl)-4-oxo-2-thiazolidinylidene]amino}-2-fluorophenyl}-1-methyl-6-(trifluoromethyl)-2,4(1H,3H)-pyrimidinedione]
- herbicidal rating AMBEL ([1]; rate 0.0156 kg/ha): 9.0
- herbicidal rating AMBEL ([1]; rate 0.0313 kg/ha): 9.0
- herbicidal rating AMBEL ([1]; rate 0.0625 kg/ha): 7.0
- herbicidal rating CASOB ([2]; rate 0.0156 kg/ha): 4.0
- herbicidal rating CASOB ([2]; rate 0.0313 kg/ha): 5.0
- herbicidal rating CASOB ([2]; rate 0.0625 kg/ha): 9.0
- herbicidal rating GALAP ([3]; rate 0.0156 kg/ha): 1.0
- herbicidal rating GALAP ([3]; rate 0.0313 kg/ha): 3.0
- herbicidal rating GALAP ([3]; rate 0.0625 kg/ha): 4.0
- herbicidal rating GLXMAW ([4]; rate 0.0156 kg/ha): 5.5
- herbicidal rating GLXMAW ([4]; rate 0.0313 kg/ha): 6.5
- herbicidal rating GLXMAW ([4]; rate 0.0625 kg/ha): 7.0
- herbicidal rating TRZAWR ([5]; rate 0.0156 kg/ha): 2.5
- herbicidal rating TRZAWR ([5]; rate 0.0313 kg/ha): 3.0
- herbicidal rating TRZAWR ([5]; rate 0.0625 kg/ha): 3.5
- Preemergence herbicidal rating GALAP ([6]; rate 0.0156 kg/ha): 0.0
- Preemergence herbicidal rating GALAP ([6]; rate 0.0313 kg/ha): 0.0
- Preemergence herbicidal rating GALAP ([6]; rate 0.0625 kg/ha): 0.0
- Preemergence herbicidal rating GALAP ([6]; rate 0.1250 kg/ha): 0.0
- Preemergence herbicidal rating GALAP ([6]; rate 0.2500 kg/ha): 0.0
- Preemergence herbicidal rating SETVI ([7]; rate 0.0156 kg/ha): 0.0
- Preemergence herbicidal rating SETVI ([7]; rate 0.0313 kg/ha): 0.0
- Preemergence herbicidal rating SETVI ([7]; rate 0.0625 kg/ha): 0.0
- Preemergence herbicidal rating SETVI ([7]; rate 0.1250 kg/ha): 1.0
- Preemergence herbicidal rating SETVI ([7]; rate 0.2500 kg/ha): 7.0
- Preemergence herbicidal rating ORYSAT ([8]; rate 0.0156 kg/ha): 0.0
- Preemergence herbicidal rating ORYSAT ([8]; rate 0.0313 kg/ha): 0.0
- Preemergence herbicidal rating ORYSAT ([8]; rate 0.0625 kg/ha): 0.0
- Preemergence herbicidal rating ORYSAT ([8]; rate 0.1250 kg/ha): 1.0
- Preemergence herbicidal rating ORYSAT ([8]; rate 0.2500 kg/ha): 2.0
- herbicidal effect rating, ECHORC ([9]; 0.0313 kg/ha): 6.0
- herbicidal effect rating, ECHORC ([9]; 0.0625 kg/ha): 7.0
- herbicidal effect rating, ECHORC ([9]; 0.1250 kg/ha): 7.0
- herbicidal effect rating, ECHORC ([9]; 0.2500 kg/ha): 7.0
- herbicidal effect rating, CYPSE ([10]; 0.1250 kg/ha): 0.0
- herbicidal effect rating, CYPSE ([10]; 0.2500 kg/ha): 0.0
- herbicidal effect rating, MOOVA ([11]; 0.0313 kg/ha): 4.0
- herbicidal effect rating, MOOVA ([11]; 0.0625 kg/ha): 5.0
- herbicidal effect rating, MOOVA ([11]; 0.1250 kg/ha): 7.0
- herbicidal effect rating, MOOVA ([11]; 0.2500 kg/ha): 7.0
- herbicidal effect rating, SAGPY ([12]; 0.0313 kg/ha): 0.0
- herbicidal effect rating, SAGPY ([12]; 0.0625 kg/ha): 0.0
- herbicidal effect rating, SAGPY ([12]; 0.1250 kg/ha): 0.0
- herbicidal effect rating, SAGPY ([12]; 0.2500 kg/ha): 0.0
